From ChEMBL document CHEMBL1201862, “PubChem BioAssay data set” (2004) come the findings set out here.

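Cells were grown in 96-well plates and exposed to each compound for 48 hours at five concentrations; endpoints were interpolated linearly between bracketing concentrations, or set to the highest concentration if not reached. GI50: concentration for 50% inhibition of growth.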 Activity calls are given as the source filed them. Rule as the data show it: active = GI50 up to about 1.1 µM and inactive = higher.

Test systems include 786-0; A549; CAKI-1; HCT-15; KM12; Malme-3M; NCI-H522; OVCAR-4; OVCAR-5; PC-3; SNB-19; SNB-75; T47D; U-251; UACC-62; M14; OVCAR-3; MCF7.
Common to all, as to assay: NCI tumour cell line growth inhibition, 48 h

As to `c1ccc(/N=C2\SC(=NNc3ccccc3)S\C2=N/c2ccccc2)cc1`, the GI50 with 786-0 is > 100 µM (inactive); in the test with A549, 25.2 µM (inactive); with CAKI-1, > 100 µM (inactive); with HCT-15 it was greater than 100 µM; in the test with KM12 it was 6.12 µM (inactive); with Malme-3M, > 100 µM (inactive). Moreover, the GI50 with NCI-H522 was 15.3 µM (inactive); with OVCAR-4, > 100 µM (inactive); with OVCAR-5 it was 98.2 µM (inactive); in the test on PC-3, 19.5 µM (inactive); with SNB-19, 72.6 µM (inactive); in the test with SNB-75, 85.7 µM (inactive). Further, the results for the GI50 in the test on T47D, in the test on U-251 and in the test with UACC-62 were 74.1 µM (inactive), 38.1 µM (inactive) and 4.13 µM (inactive), respectively.

For the compound `CCOC(=O)C1=C(O)C(=O)c2ccccc2C1=O`, the GI50 in the test on 786-0 was > 100 µM (inactive); in the test on A549, > 100 µM (inactive); in the test on CAKI-1, > 100 µM (inactive); in the test with HCT-15 it was greater than 100 µM; in the test with KM12 it was > 100 µM (inactive); with M14 it was > 100 µM (inactive). In addition, the GI50 is 50.6 µM (inactive) with Malme-3M; > 100 µM (inactive) in the test with NCI-H522; > 100 µM (inactive) in the test on OVCAR-3; > 100 µM (inactive) in the test with OVCAR-4; > 100 µM (inactive) in the test with OVCAR-5; 40.9 µM (inactive) in the test with SNB-19. Also, the GI50 in the test on SNB-75 was > 100 µM (inactive); in the test with U-251 it was > 100 µM (inactive); with UACC-62, 48 µM (inactive).

For `C/N=c1/ss/c(=N\C(SC)=[N+](C)C)n1C.[O-][Cl+3]([O-])([O-])[O-]`, the GI50 in the test on 786-0 was > 100 µM (inactive); in the test on A549 it was > 100 µM (inactive); in the test on CAKI-1, 54.8 µM (inactive); in the test on HCT-15, greater than 100 µM; in the test with KM12, > 100 µM (inactive); in the test with M14 it was > 100 µM (inactive). Moreover, the GI50 is 14.8 µM (inactive) in the test with NCI-H522; > 100 µM (inactive) with OVCAR-5; > 100 µM (inactive) in the test with SNB-19; > 100 µM (inactive) with U-251; 3.99 µM (inactive) with UACC-62.

Turning to `COC(=O)c1ccc2c(c1)CC1(C2)Cc2cc3c(cc2C1=O)CCC3` (centres undefined), the GI50 in the test on 786-0 is 53 µM (inactive); in the test with A549 it was 36.7 µM (inactive); in the test on CAKI-1 it was 14.6 µM (inactive); in the test on HCT-15 it was 34.9 µM; in the test on KM12 it was 9.46 µM (inactive); with M14, 19.2 µM (inactive). In addition, the GI50 with MCF7 is 20.9 µM (inactive); with Malme-3M, 27.4 µM (inactive); with NCI-H522, 39.6 µM (inactive); with OVCAR-3, 26.7 µM (inactive); in the test with OVCAR-4 it was 24.7 µM (inactive); in the test on OVCAR-5, 84.1 µM (inactive). Moreover, the GI50 in the test with PC-3 was 39.4 µM (inactive); with SNB-19 it was > 100 µM (inactive); in the test on SNB-75, 21.6 µM (inactive); with T47D, 42.5 µM (inactive); with U-251, 33.7 µM (inactive).

With `CC(C)CCNC(=O)c1ccc(CNC(=O)/C=C/c2ccc(-c3ccccc3[N+](=O)[O-])o2)cc1`, the GI50 is 28.6 µM (inactive) in the test with 786-0; 68.2 µM (inactive) in the test with A549; 46.3 µM (inactive) in the test with CAKI-1; greater than 100 µM in the test with HCT-15; 32.5 µM (inactive) in the test on KM12; > 100 µM (inactive) in the test with M14. Besides, the GI50 in the test with MCF7 was 68.5 µM (inactive); in the test on OVCAR-3, 94.8 µM (inactive); in the test with OVCAR-4, 14.4 µM (inactive); in the test on OVCAR-5, 81.8 µM (inactive); with PC-3, > 100 µM (inactive); in the test on SNB-19, 22.7 µM (inactive). The GI50 is 25 µM (inactive) with SNB-75, 12.2 µM (inactive) in the test with T47D, 56.8 µM (inactive) in the test on U-251 and 16 µM (inactive) in the test on UACC-62.
